The structures appear in SMILES notation.

The target in test [1] is T1, Polyunsaturated fatty acid 5-lipoxygenase (Rattus norvegicus, UniProt P12527).
T1 sequence (P12527 whole entry): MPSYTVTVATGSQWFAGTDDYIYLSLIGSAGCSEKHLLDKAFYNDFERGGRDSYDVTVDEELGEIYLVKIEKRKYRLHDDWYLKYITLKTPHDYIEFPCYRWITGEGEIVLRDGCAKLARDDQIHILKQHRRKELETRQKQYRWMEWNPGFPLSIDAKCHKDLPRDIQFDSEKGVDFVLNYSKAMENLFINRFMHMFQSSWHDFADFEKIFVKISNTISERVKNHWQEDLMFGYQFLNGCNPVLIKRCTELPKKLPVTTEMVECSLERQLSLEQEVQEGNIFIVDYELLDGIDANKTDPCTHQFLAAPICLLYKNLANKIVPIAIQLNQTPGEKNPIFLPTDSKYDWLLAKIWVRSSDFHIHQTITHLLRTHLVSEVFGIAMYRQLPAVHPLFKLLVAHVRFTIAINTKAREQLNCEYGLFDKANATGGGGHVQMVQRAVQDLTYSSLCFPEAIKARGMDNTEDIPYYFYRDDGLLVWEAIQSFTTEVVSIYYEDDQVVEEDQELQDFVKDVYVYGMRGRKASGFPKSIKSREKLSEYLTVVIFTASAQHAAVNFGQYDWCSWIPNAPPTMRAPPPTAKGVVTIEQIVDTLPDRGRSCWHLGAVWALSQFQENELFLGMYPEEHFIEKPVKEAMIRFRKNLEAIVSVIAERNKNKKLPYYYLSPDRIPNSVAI
The experiment in a line: Tested for inhibition of 5-Lipoxygenase (ARBL) in calcium-stimulated rat basophilic leukemia cells(RBL-1). The class given is cell-based.

For a further test, the target named is T2, Cyclooxygenase (Rattus norvegicus, UniProt P35355+Q63921).
T2 sequence (P35355 whole entry): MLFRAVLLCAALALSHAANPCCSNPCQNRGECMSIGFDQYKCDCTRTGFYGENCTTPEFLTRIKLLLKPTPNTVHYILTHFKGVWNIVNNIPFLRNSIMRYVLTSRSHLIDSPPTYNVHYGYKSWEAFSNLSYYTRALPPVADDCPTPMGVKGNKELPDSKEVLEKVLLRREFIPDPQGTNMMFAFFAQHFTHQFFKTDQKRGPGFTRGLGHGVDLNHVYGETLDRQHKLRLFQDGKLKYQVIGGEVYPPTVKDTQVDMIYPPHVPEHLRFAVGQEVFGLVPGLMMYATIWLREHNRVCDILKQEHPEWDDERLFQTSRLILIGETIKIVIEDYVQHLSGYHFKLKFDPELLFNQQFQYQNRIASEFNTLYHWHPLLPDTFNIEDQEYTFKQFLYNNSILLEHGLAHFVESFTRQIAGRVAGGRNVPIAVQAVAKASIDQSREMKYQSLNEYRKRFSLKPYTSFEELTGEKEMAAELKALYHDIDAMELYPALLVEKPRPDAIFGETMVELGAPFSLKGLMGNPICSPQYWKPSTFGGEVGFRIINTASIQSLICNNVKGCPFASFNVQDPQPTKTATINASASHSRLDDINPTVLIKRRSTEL
T2 sequence (Q63921 whole entry): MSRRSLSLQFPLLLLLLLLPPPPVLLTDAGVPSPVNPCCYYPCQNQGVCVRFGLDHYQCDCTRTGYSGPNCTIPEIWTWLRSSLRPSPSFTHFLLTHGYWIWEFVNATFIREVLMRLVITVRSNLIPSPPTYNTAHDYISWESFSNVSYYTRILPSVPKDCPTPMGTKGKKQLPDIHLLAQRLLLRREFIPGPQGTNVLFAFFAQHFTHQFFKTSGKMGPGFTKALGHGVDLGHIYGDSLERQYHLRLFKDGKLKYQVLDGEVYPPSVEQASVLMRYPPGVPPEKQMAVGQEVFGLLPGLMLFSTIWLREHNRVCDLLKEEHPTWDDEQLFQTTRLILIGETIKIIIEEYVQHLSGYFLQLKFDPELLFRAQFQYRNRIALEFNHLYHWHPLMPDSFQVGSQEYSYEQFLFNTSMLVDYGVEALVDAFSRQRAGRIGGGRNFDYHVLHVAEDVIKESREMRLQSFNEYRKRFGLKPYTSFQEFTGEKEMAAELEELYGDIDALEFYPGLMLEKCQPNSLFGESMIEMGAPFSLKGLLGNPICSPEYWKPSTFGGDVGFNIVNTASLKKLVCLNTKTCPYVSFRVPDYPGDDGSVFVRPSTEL
The following applies: rbl-1.

Description for Cyclooxygenase: Tested for inhibition of cyclooxygenase (ARBC) in calcium-stimulated rat basophilic leukemia cells(RBL-1)

The term IC50 denotes the concentration needed to halve the response being measured. On to `CNC(=S)N(O)C(C)c1c(C)n(C(=O)c2ccc(Cl)cc2)c2ccc(OC)cc12` (configuration not stated), for which the IC50 stood at 570 nM in test [1] and 7 µM against Cyclooxygenase.

In the case of `CNC(=S)N(O)Cc1c(C)n(C(=O)c2ccc(Cl)cc2)c2ccc(OC)cc12`, the IC50 at Cyclooxygenase came out at 7.1 µM.

As for `COc1ccc2c(c1)c(C(C)N(O)C(C)=O)c(C)n2C(=O)c1ccc(Cl)cc1` (configuration not stated), the figures for the IC50 (in test [1]; against Cyclooxygenase) were 830 nM and 2.4 µM, respectively.

For `COc1ccc2c(c1)c(C(C)N(O)C(N)=O)c(C)n2C(=O)c1ccc(Cl)cc1` (configuration not stated), the half-maximal inhibitory concentration (IC50) was 1400 nM in test [1] and 0.89 µM against Cyclooxygenase.

As to `COc1ccc2c(c1)c(CN(O)C(N)=O)c(C)n2C(=O)c1ccc(Cl)cc1`, the IC50 is 340 nM in test [1] and above 20 µM on Cyclooxygenase.

`COc1ccc2c(c1)c(CN(O)C(C)=O)c(C)n2C(=O)c1ccc(Cl)cc1`: the figures for the 50% inhibitory concentration (IC50) (in test [1]; against Cyclooxygenase) were 1400 nM and 15 µM, respectively.

Regarding `COc1ccc2c(c1)c(CC(=O)O)c(C)n2C(=O)c1ccc(Cl)cc1` [INDOMETHACIN], the IC50 in test [1] was above 100000 nM.

The values are drawn from ChEMBL document CHEMBL1126384, “Synthesis of reversed hydroxamic acids of indomethacin: dual inhibitors of cyclooxygenase and 5-lipoxygenase” (Bioorg Med Chem Lett, 1992).
